Read-outs that look alike come from different tables or passages of the source.
How the values were obtained:
norepinephrine uptake = tested on: norepinephrine uptake; set-up: Amine Uptakes Blocking Activity Norepinephrine: key to the marks not given beside the values; settings: cited from earlier work; for Amine Uptakes Blocking Activity Norepinephrine: Table 3; for Interaction and blocking activity at the norepinephrine receptor site: in words, text commenting on Table 6
[1] = cited from earlier work
dopamine receptors = settings: in words, footnote 3 and text on Table 6; cited from earlier work
dopamine uptake = settings: in words, footnote 5 of Table 6; cited from earlier work
[2] = tested on: canine affective aggression behavior; assay: Case histories: treatment of household dogs exhibiting canine affective aggression
Excerpt: The clinical diagnosis was affective aggression behavior which was dominance aggression and/fear aggression.

[3] = Table 6, parent compound plus active metabolite
[4] = Case 4, Cocker Spaniel, orally 25 mg daily, after two months

CN(C)CCC=C1c2ccccc2CCc2ccccc21 [Amitriptyline]
Amine Uptakes Blocking Activity Norepinephrine (norepinephrine uptake): ++
Interaction and blocking activity at the norepinephrine receptor site (norepinephrine uptake): modest or slight
Half-life ([1]; Table 3): 31 to 46 h
Therapeutic Plasma Level ([1]; Table 3, marked ^1, footnote printed only under Table 6: parent compound plus active metabolite): 110 to 250 ng/mL
Half-life ([1]; Table 6): 31 to 46 h
Therapeutic plasma level [1, 3]: 110 to 250 ng/mL
Time to Reach Steady State ([1]; in vivo): 4 to 10 days
Time to reach steady state ([1]; in vivo): 4 to 10 days

Clc1ccc2c(c1)C(N1CCNCC1)=Nc1ccccc1O2 [Amoxapine, amoxapine]
Dopamine receptor blockade / interaction (dopamine receptors): blocks dopamine receptors
Half-life ([1]; human, in vivo): 8 h
Therapeutic plasma level ([1]; in vivo): 200 to 500 ng/mL
Time to reach steady state ([1]; in vivo): 2 to 7 days

CC(NC(C)(C)C)C(=O)c1cccc(Cl)c1 (stereo not drawn) [Bupropion, bupropion]
Dopamine uptake inhibition (dopamine uptake): Inhibits dopamine uptake
Half-life ([1]; Table 6): 8 to 24 h
Time to reach steady state ([1]; Table 6): 1.5 to 5 days

CN(C)CCCN1c2ccccc2CCc2ccc(Cl)cc21 [Clomipramine, 3-chloro-10,11-dihydro-N,N-dimethyl-5H-benzo-[b,f]azepine-5-propamine]
Amine Uptakes Blocking Activity Norepinephrine (norepinephrine uptake): ++
Interaction and blocking activity at the norepinephrine receptor site (norepinephrine uptake): modest or slight
Therapeutic Plasma Level ([1]; in vivo): 80 to 100 ng/mL
Therapeutic plasma level ([1]; in vivo): 80 to 100 ng/mL
Time to Reach Steady State ([1]; in vivo): 7 to 14 days
Time to reach steady state ([1]; in vivo): 7 to 14 days
Owner-noted change in aggressive behavior ([2]; Case 1, Australian Shepherd, 25 mg daily, after one week's treatment): slight improvement
Improvement in aggression behavior ([2]; Case 1, Australian Shepherd, 25 mg daily, after several weeks' treatment): maintained
Owner-rated improvement of behavior ([2]; Case 1, Australian Shepherd, 25 mg daily, three weeks after start): 50-75%
Owner rating of behavior ([2]; Case 2, Lhasa Apso, dominance and territorial aggression, approx. 1 mg/kg twice a day for one week then approx. […] twice a day, after two weeks): slightly improved
Persistence of improvement in aggressive behavior ([2]; Case 2, Lhasa Apso, through the eight weeks following termination of administration): sustained
Improvement in behavior ([2]; Case 3, German Shepherd, fear and territorial aggression, once a day slightly less than 1 mg/kg, after two weeks): Moderate improvement
Improvement in behavior ([2]; Case 3, German Shepherd, once a day slightly less than 1 mg/kg, eight weeks after initiation): moderate improvement
Owner-rated improvement in behavior ([2]; Case 4, Cocker Spaniel, dominance/fear aggression, orally 25 mg daily, after one week): 25-50%
Owner-reported behavior ([2]; Case 4, Cocker Spaniel, orally 25 mg daily, after one month): much calmer on the street
Improvement in behavior [2, 4]: 50-75%
Owner-reported behavior [2, 4]: essentially non-aggressive
Owner-reported behavior ([2]; Case 4, Cocker Spaniel, orally 25 mg daily, after two weeks): fine in the house
Overall effectiveness for treatment of interspecific affective aggression in dogs ([2]; conclusion from the four case histories, no behavior modification therapy): very effective

CNCCCN1c2ccccc2CCc2ccccc21 [Desipramine, desipramine]
Half-life ([1]; human, in vivo): 12 to 24 h
Therapeutic plasma level ([1]; in vivo): 125 to 300 ng/mL
Time to reach steady state ([1]; in vivo): 2 to 11 days

CN(C)CCC=C1c2ccccc2COc2ccccc21 [Doxepin, doxepin]
Half-life ([1]; human, in vivo): 8 to 24 h
Time to reach steady state ([1]; in vivo): 2 to 8 days

CNCCC(Oc1ccc(C(F)(F)F)cc1)c1ccccc1 (stereo not drawn) [Fluoxetine, fluoxetine]
Time to reach steady state ([1]; in vivo): 2-4 weeks

CN(C)CCCN1c2ccccc2CCc2ccccc21 [Imipramine, imipramine]
Time to reach steady state ([1]; in vivo): 2 to 5 days

CNCCCC12CCC(c3ccccc31)c1ccccc12 [Maprotiline, maprotiline]
Time to reach steady state ([1]; Table 6): 6 to 10 days
Therapeutic plasma level [1, 3]: 200 to 300 ng/mL
Half-life ([1]; human, in vivo): 21 to 25 h

CNCCC=C1c2ccccc2CCc2ccccc21 [Nortriptyline, 3-(10,11-Dihydro-5H-dibenzo[a,d]cyclohepten-5-ylidene)-N-methyl-1-propamine]
Half-life ([1]; Table 3): 18 to 44 h
Time to Reach Steady State ([1]; Table 3): 4 to 19 days
Half-life ([1]; Table 6): 18 to 44 h
Time to reach steady state ([1]; Table 6): 4 to 19 days

Fc1ccc([C@@H]2CCNC[C@H]2COc2ccc3c(c2)OCO3)cc1 [Paroxetine, paroxetine]
Half-life ([1]; Table 6): 10 to 24 h
Time to reach steady state ([1]; in vivo): 7 to 14 days

CNCCCC1c2ccccc2C=Cc2ccccc21 [Protriptyline, protriptyline]
Half-life ([1]; human, in vivo): 67 to 89 h
Therapeutic plasma level ([1]; in vivo): 100 to 200 ng/mL
Time to reach steady state ([1]; in vivo): 14 to 19 days

CN[C@H]1CC[C@@H](c2ccc(Cl)c(Cl)c2)c2ccccc21 [Sertraline, sertraline]
Time to reach steady state ([1]; in vivo): 7 days

CC(CN(C)C)CN1c2ccccc2CCc2ccccc21 (stereo not drawn) [Trimipramine, trimipramine]
Half-life ([1]; Table 6): 7 to 30 h
Time to reach steady state ([1]; in vivo): 2 to 6 days

CC(C)NCC(O)COc1cccc2ccccc12 (stereo not drawn) [inclerol]
Effect on aggressive behavior ([2]; Case 1, Australian Shepherd, 14-year old castrated male, beta-blocker for one week): only increased his aggressive behavior

Source: patent publication US5762960A (Trustees of Tufts College, priority 1996, dated 1998)
